{"source": "paper PMC13070491", "about": "“Single-nucleus transcriptomics, pharmacokinetics, and pharmacodynamics of CDK4/6 and mTOR inhibition in a Phase 0/1 trial of recurrent high-grade glioma” (Neuro-Oncology, 2025)", "test_system": "GB126, GB239 and GB86 patient-derived cell lines", "assay": "In vitro single-cell RNA sequencing, analyses across the cell lines (pseudobulk differential gene expression, GSEA, non-cycling cells)", "format": "cell-based, human", "description": "Patient-derived glioma stem cell lines (GSCs; GB126, GB86, and GB239) were established from resected GBM tumor tissue. Cell lines were genetically profiled for mutations and copy number aberrations using the IvySeq custom gene panel. […] GB239 was derived from a tumor sample included in this Phase 0 trial (tumor sample: 100-0039). All human GSCs were cultured as described previously.[12]\nFollowing the fifth day of drug exposure, cells were harvested, cryopreserved to be processed at a later point, or immediately processed for single-cell RNA sequencing (10x Genomics, 3’ version 3). The single-cell RNA sequencing data were then processed via cellranger count and Seurat. Briefly, cells were filtered out based on the following criteria: minimum number of genes detected >500 and <10 000 with a maximum percentage of mitochondrial genes set to 10%. Statistical assessment was made between the malignant proportions of each cell state using a 2-sided paired t-test.\nDescriptive statistics of the clinical data are included in Table 1. Comparisons between groups were conducted using a 2-sided or paired 2-sided t-test, where indicated. P < .05 was considered significant. Multiple hypothesis test corrections (ie, false discovery rate correction) were applied for snRNAseq pseudobulk differential expression analysis.", "data": [{"smiles": "CN(C)C(=O)c1cc2cnc(Nc3ccc(N4CCNCC4)cn3)nc2n1C1CCCC1", "note": "[Ribociclib, ribociclib]", "values": [{"measurement": "CDK4 gene expression following ribociclib treatment", "setting": "5 days vs DMSO, single-cell RNAseq", "result": "reduced but remained high"}, {"measurement": "NPC-like proportion, cells not actively cycling", "setting": "ribociclib vs DMSO 5 days, paired t-test P = 1.4E-06", "result": "decrease"}, {"measurement": "AC-like proportion, cells not actively cycling", "setting": "ribociclib vs DMSO 5 days, paired t-test P = 2.6E-03", "result": "increase"}]}]}
